The values that follow come from patent publication US20250388553A1 (Incyte Corporation, priority 2018, published 2025).

By pIC50 is commonly meant −log10 of the IC50, conventionally taken in molar units.

pIC50: −log10 of the molar value. Structures can show the parent of a compound that is named as a salt.

Experiment [1] deals with PI3Kγ (p110γ) Recombinant Human Protein (Homo sapiens (Human), UniProt P48736). Briefly: PI3K-γ scintillation proximity assay. The conditions noted are these: scintillation proximity assay, recombinant human p110γ. It is filed as biochemical. An excerpt: Example B. PI3K-γ Scintillation Proximity Assay
Materials: [γ-^33P]ATP (10 mCi/mL) and Wheat Germ Agglutinin (WGA) YSi SPA Scintillation Beads was purchased from Perkin Elmer (Waltham, MA). Lipid kinase substrate, D-myo-Phosphatidylinositol 4,5-bisphosphate (PtdIns(4,5)P2)D (+)-sn-1,2-di-O-octanoylglyceryl, 3-O-phospho linked (PIP2), CAS 204858-53-7, was purchased from Echelon Biosciences (Salt Lake City, UT). PI3Kγ (p110γ) Recombinant Human Protein was purchased from Life technology (Grand Island, NY). ATP, MgCl2, DTT, EDTA, MOPS and CHAPS were purchased from Sigma Aldrich (St. Louis, MO).
(§1) The kinase reaction was conducted in polystyrene 384-well Greiner Bio-one white plate from Thermo Fisher Scientific in a final volume of 25 L. Inhibitors were first diluted serially in DMSO and added to the plate wells before the addition of other reaction components. The final concentration of DMSO in the assay was 2%. The PI3Kγ assay was carried out at room temperature in 20 mM MOPS, pH 6.7, 10 mM MgCl2, 5 mM DTT and CHAPS 0.03%. Reactions were initiated by the addition of ATP, the final reaction mixture consisted of 20 µM […], 0.5 μCi [γ-^33P]ATP, 13 nM PI3Kγ. Reactions were incubated for 120 min and terminated by the addition of 40 μL SPA beads suspended in quench buffer: 163 mM potassium phosphate pH 7.8, 20% glycerol, 25 mM EDTA. The final concentration of SPA beads is 1.0 mg/mL. After the plate sealing, plates were shaken overnight at room temperature and centrifuged at 1500 rpm for 10 min, the radioactivity of the product was determined by scintillation counting on Topcount (Perkin-Elmer). IC50 determination was performed by fitting the curve of percent of the solvent control activity versus the log of the inhibitor concentration using the GraphPad Prism 6.0 software.
(§2) The compounds of the Examples were tested in the assays described in Examples A, B and C and found to have the IC50s are shown in Tables A1, A2, A3 and A4.
A general note: Scintillation proximity formats need no separation of bound from free tracer.

Experiment [2] has as its target PI3Kδ (p1106/p85a) Recombinant Human Protein (Homo sapiens (Human), UniProt O00329). The experiment can be described thus: PI3Kδ scintillation proximity assay. It is filed as biochemical. The conditions noted are these: scintillation proximity assay, recombinant human PI3Kδ.
Description: Example C. PI3Kδ Scintillation Proximity Assay
Materials: [γ-^33P]ATP (10 mCi/mL) and Wheat Germ Agglutinin (WGA) YSi SPA Scintillation Beads was purchased from Perkin Elmer (Waltham, MA). Lipid kinase substrate, D-myo-Phosphatidylinositol 4,5-bisphosphate (PtdIns(4,5)P2)D (+)-sn-1,2-di-O-octanoylglyceryl, 3-O-phospho linked (PIP2), CAS 204858-53-7, was purchased from Echelon Biosciences (Salt Lake City, UT). PI3Kδ (p1106/p85a) Recombinant Human Protein was purchased from Eurofins (St Charles, MO). ATP, MgCl2, DTT, EDTA, MOPS and CHAPS were purchased from Sigma Aldrich (St. Louis, MO).
as §1, with “25 μL.” for “25 L.”, “The PI3Kδ” for “The PI3Kγ”, “[γ-^33P]ATP, 3.4” for “[γ-^33P]ATP, 13”, “nM PI3Kδ.” for “nM PI3Kγ.”, “Topcount (PerkinElmer).” for “Topcount (Perkin-Elmer).”
as §2

Chain of PI3Kγ (p110γ) Recombinant Human Protein (P48736 whole entry): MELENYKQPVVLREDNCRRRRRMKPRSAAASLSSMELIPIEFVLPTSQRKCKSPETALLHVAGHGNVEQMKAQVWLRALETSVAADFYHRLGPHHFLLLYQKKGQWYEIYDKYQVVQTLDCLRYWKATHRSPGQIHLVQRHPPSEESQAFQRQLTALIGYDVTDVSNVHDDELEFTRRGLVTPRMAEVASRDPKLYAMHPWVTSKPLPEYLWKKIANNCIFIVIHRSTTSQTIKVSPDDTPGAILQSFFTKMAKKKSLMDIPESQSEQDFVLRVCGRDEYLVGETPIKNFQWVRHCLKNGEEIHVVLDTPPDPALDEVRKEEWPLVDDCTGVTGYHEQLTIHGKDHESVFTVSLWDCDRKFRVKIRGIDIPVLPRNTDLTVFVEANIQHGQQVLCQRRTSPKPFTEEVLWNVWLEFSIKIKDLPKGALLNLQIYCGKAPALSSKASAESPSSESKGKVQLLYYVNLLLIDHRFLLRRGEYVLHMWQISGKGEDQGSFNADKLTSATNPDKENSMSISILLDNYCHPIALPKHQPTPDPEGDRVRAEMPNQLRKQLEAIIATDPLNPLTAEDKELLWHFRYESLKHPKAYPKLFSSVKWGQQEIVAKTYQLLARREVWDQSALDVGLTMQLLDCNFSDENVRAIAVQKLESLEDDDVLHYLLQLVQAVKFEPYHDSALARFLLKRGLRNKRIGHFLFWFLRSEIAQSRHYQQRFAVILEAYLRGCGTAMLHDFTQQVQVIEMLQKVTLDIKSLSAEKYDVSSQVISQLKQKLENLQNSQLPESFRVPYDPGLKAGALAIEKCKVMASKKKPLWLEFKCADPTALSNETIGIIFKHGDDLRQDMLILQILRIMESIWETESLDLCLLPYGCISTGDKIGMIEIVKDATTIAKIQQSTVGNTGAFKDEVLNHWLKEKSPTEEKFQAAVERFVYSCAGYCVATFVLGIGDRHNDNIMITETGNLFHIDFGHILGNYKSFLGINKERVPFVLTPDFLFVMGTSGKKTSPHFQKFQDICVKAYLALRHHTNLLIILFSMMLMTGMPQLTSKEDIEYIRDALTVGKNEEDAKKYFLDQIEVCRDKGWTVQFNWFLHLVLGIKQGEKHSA
Chain of PI3Kδ (p1106/p85a) Recombinant Human Protein (O00329 whole entry): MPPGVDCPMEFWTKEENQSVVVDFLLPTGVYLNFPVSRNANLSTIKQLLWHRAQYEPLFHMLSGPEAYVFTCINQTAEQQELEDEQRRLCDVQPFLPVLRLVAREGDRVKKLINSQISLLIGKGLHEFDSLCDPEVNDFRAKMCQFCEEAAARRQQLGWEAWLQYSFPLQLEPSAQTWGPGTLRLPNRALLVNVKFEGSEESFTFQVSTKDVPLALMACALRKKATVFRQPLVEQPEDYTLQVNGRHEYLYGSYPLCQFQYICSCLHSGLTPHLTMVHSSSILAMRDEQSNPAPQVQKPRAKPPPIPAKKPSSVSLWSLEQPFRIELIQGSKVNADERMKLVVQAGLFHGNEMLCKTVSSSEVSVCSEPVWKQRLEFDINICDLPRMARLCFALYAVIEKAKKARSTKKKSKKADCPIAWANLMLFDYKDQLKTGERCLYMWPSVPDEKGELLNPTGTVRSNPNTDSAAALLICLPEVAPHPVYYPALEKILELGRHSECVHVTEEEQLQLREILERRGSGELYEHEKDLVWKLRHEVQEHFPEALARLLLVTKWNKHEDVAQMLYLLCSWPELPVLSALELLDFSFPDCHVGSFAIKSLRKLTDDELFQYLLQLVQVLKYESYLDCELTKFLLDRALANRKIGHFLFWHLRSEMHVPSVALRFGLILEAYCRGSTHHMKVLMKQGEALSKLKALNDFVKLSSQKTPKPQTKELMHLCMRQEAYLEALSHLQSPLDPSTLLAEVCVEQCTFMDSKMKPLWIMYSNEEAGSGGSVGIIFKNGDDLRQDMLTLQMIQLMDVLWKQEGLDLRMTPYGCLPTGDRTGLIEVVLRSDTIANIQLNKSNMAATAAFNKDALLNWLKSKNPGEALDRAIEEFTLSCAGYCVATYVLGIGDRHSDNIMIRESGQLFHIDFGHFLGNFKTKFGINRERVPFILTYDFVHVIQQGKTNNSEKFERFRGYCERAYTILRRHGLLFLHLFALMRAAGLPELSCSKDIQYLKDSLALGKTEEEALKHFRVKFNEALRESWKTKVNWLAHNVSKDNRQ
Chain of PI3Kδ (p1106/p85a) Recombinant Human Protein (P27986 whole entry partner): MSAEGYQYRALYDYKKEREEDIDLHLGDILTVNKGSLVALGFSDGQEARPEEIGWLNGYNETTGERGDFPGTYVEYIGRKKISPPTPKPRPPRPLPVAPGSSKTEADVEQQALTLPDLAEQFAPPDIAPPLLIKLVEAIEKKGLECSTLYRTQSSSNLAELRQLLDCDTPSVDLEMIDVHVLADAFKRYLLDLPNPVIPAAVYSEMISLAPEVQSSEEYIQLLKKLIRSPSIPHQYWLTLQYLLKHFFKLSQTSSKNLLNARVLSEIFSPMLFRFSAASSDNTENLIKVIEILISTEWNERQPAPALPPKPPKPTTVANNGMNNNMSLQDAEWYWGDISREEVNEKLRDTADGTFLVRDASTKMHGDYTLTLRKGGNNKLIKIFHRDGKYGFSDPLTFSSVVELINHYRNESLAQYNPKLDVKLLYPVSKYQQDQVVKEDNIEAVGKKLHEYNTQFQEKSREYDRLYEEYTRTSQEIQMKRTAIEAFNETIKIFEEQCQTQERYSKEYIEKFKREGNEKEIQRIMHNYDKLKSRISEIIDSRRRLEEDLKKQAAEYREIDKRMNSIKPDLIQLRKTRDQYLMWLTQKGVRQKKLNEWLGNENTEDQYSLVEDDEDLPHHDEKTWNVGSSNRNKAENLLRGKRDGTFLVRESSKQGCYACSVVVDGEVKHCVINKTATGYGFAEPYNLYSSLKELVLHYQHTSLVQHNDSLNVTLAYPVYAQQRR

For the molecule `COCC#Cc1nc(-c2cc(C(O)(C(N)=O)C(F)(F)F)ccc2C)cnc1N` (stereo not shown) [Example 47, 2-(3-(5-amino-6-(3-methoxyprop-1-ynyl)pyrazin-2-yl)-4-methylphenyl)-3,3,3-trifluoro-2-hydroxypropanamide trifluoroacetate], the pIC50 in experiment [1] (Table A2) and in experiment [2] (Table A2) was more than 7.00 each time.

As for `Cc1ccc(C(O)(C(N)=O)C(F)(F)F)cc1-c1cnc(N)c(C#CC2CC2)n1` (stereo not shown) [Example 48, 2-(3-(5-amino-6-(cyclopropylethynyl)pyrazin-2-yl)-4-methylphenyl)-3,3,3-trifluoro-2-hydroxypropanamide], the pIC50 in experiment [1] (Table A2) and in experiment [2] (Table A2) was more than 7.00 throughout.

`Cc1ccc(C(O)(C(N)=O)C(F)(F)F)cc1-c1cnc(N)c(C#CC(C)(C)O)n1` (stereo not shown) [Example 50, 2-(3-(5-amino-6-(3-hydroxy-3-methylbut-1-ynyl)pyrazin-2-yl)-4-methylphenyl)-3,3,3-trifluoro-2-hydroxypropanamide]: the negative logarithm of the IC50 (pIC50) in experiment [1] (Table A2) and in experiment [2] (Table A2) was more than 7.00 in each case.

With `Cc1ccc(C(O)(C(N)=O)C(F)(F)F)cc1-c1cnc(N)c(C#CCC(C)O)n1` (stereo not shown) [Example 51, 2-(3-(5-amino-6-(4-hydroxypent-1-ynyl)pyrazin-2-yl)-4-methylphenyl)-3,3,3-trifluoro-2-hydroxypropanamide], the pIC50 in experiment [1] (Table A2) and in experiment [2] (Table A2) was more than 7.00 in each case.

On to `Cc1ccc(C(O)(C(N)=O)C(F)(F)F)cc1-c1cnc(N)c(C#Cc2cnn(C)c2)n1` (stereo not shown) [Example 54, 2-(3-(5-amino-6-((1-methyl-1H-pyrazol-4-yl)ethynyl)pyrazin-2-yl)-4-methylphenyl)-3,3,3-trifluoro-2-hydroxypropanamide], for which the pIC50 in experiment [1] (Table A2) and in experiment [2] (Table A2) was more than 7.00 each time.

`Cc1ccc(C(O)(C(N)=O)C(F)(F)F)cc1-c1cnc(N)c(C#Cc2ccccn2)n1` (stereo not shown) [Example 55, 2-(3-(5-amino-6-(pyridin-2-ylethynyl)pyrazin-2-yl)-4-methylphenyl)-3,3,3-trifluoro-2-hydroxypropanamide]: the pIC50 in experiment [1] (Table A2) and in experiment [2] (Table A2) was more than 7.00 throughout.

Take `Cc1ccc(C(O)(C(N)=O)C(F)(F)F)cc1-c1cnc(N)c(C#Cc2cncnc2)n1` (stereo not shown) [Example 56, 2-(3-(5-amino-6-(pyrimidin-5-ylethynyl)pyrazin-2-yl)-4-methylphenyl)-3,3,3-trifluoro-2-hydroxypropanamide]: the pIC50 in experiment [1] (Table A2) and in experiment [2] (Table A2) was more than 7.00 throughout.

`Cc1ccc(C(O)(C(N)=O)C(F)(F)F)cc1-c1cnc(N)c(C#Cc2cnccn2)n1` (stereo not shown) [Example 57, 2-(3-(5-amino-6-(pyrazin-2-ylethynyl)pyrazin-2-yl)-4-methylphenyl)-3,3,3-trifluoro-2-hydroxypropanamide]: the negative-log IC50 (pIC50) in experiment [1] (Table A2) and in experiment [2] (Table A2) was more than 7.00 each time.

In the case of `Cc1ccc(C(O)(C(N)=O)C(F)(F)F)cc1-c1cnc(N)c(C#Cc2ccc(C#N)cc2)n1` (stereo not shown) [Example 58, 2-(3-(5-amino-6-((4-cyanophenyl)ethynyl)pyrazin-2-yl)-4-methylphenyl)-3,3,3-trifluoro-2-hydroxypropanamide], the negative-log IC50 (pIC50) in experiment [1] (Table A2) and in experiment [2] (Table A2) was more than 7.00 in each case.

As to `Cc1ccc(C(O)(C(N)=O)C(F)(F)F)cc1-c1cnc(N)c(C#Cc2ccc(CC#N)cc2)n1` (stereo not shown) [Example 59, 2-(3-(5-amino-6-((4-(cyanomethyl)phenyl)ethynyl)pyrazin-2-yl)-4-methylphenyl)-3,3,3-trifluoro-2-hydroxypropanamide], the pIC50 in experiment [1] (Table A2) and in experiment [2] (Table A2) was more than 7.00 throughout.

`COc1cc(C#Cc2nc(-c3cc(C(O)(C(N)=O)C(F)(F)F)ccc3C)cnc2N)cc(OC)c1` (stereo not shown) [Example 60, 2-(3-(5-amino-6-((3,5-dimethoxyphenyl)ethynyl)pyrazin-2-yl)-4-methylphenyl)-3,3,3-trifluoro-2-hydroxypropanamide]: the pIC50 in experiment [1] (Table A2) and in experiment [2] (Table A2) was more than 7.00 throughout.

`Cc1ccc(C(O)(C(N)=O)C(F)(F)F)cc1-c1cnc(N)c(C#Cc2cccc(F)c2)n1` (stereo not shown) [Example 61, 2-(3-(5-amino-6-((3-fluorophenyl)ethynyl)pyrazin-2-yl)-4-methylphenyl)-3,3,3-trifluoro-2-hydroxypropanamide]: the pIC50 in experiment [1] (Table A2) and in experiment [2] (Table A2) was more than 7.00 in each case.

Regarding `Cc1ccc(C(O)(C(N)=O)C(F)(F)F)cc1-c1cnc(N)c(C#CC(C)(O)C(C)C)n1` (stereo not shown) [Example 62, 2-(3-(5-amino-6-(3-hydroxy-3,4-dimethylpent-1-ynyl)pyrazin-2-yl)-4-methylphenyl)-3,3,3-trifluoro-2-hydroxypropanamide], the pIC50 in experiment [1] (Table A2) and in experiment [2] (Table A2) was more than 7.00 in each case.

As to `Cc1ccc(C(O)(C(N)=O)C(F)(F)F)cc1-c1cnc(N)c(C#CC2CCOCC2)n1` (stereo not shown) [Example 63, 2-(3-(5-amino-6-((tetrahydro-2H-pyran-4-yl)ethynyl)pyrazin-2-yl)-4-methylphenyl)-3,3,3-trifluoro-2-hydroxypropanamide], the pIC50 in experiment [1] (Table A2) and in experiment [2] (Table A2) was more than 7.00 each time.

On to `Cc1ccc(C(O)(C(N)=O)C(F)(F)F)cc1-c1cnc(N)c(C#CC2(C)CCOCC2)n1` (stereo not shown) [Example 64, 2-(3-(5-amino-6-((4-methyltetrahydro-2H-pyran-4-yl)ethynyl)pyrazin-2-yl)-4-methylphenyl)-3,3,3-trifluoro-2-hydroxypropanamide], for which the pIC50 in experiment [1] (Table A2) and in experiment [2] (Table A2) was more than 7.00 in each case.

Turning to `Cc1ccc(C(O)(C(N)=O)C(F)(F)F)cc1-c1cnc(N)c(C#CC2(O)CCN(C)C2=O)n1` (stereo not shown) [Example 65, 2-(3-(5-amino-6-((3-hydroxy-1-methyl-2-oxopyrrolidin-3-yl)ethynyl)pyrazin-2-yl)-4-methylphenyl)-3,3,3-trifluoro-2-], the pIC50 in experiment [1] (Table A2) and in experiment [2] (Table A2) was more than 7.00 in each case.

As to `Cc1cnc(C#Cc2nc(-c3cc(C(O)(C(N)=O)C(F)(F)F)ccc3C)cnc2N)cn1` (stereo not shown) [Example 66, 2-(3-(5-amino-6-((5-methylpyrazin-2-yl)ethynyl)pyrazin-2-yl)-4-methylphenyl)-3,3,3-trifluoro-2-hydroxypropanamide], the negative-log IC50 (pIC50) in experiment [1] (Table A2) and in experiment [2] (Table A2) was more than 7.00 throughout.

Regarding `COc1cnc(C#Cc2nc(-c3cc(C(O)(C(N)=O)C(F)(F)F)ccc3C)cnc2N)cn1` (stereo not shown) [Example 67, 2-(3-(5-amino-6-((5-methoxypyrazin-2-yl)ethynyl)pyrazin-2-yl)-4-methylphenyl)-3,3,3-trifluoro-2-hydroxypropanamide], the negative logarithm of the IC50 (pIC50) in experiment [1] (Table A2) and in experiment [2] (Table A2) was more than 7.00 each time.

For `Cc1ccc(C(O)(C(N)=O)C(F)(F)F)cc1-c1cnc(N)c(C#Cc2cn3ccnc3cn2)n1` (stereo not shown) [Example 68, 2-(3-(5-amino-6-(imidazo[1,2-a]pyrazin-6-ylethynyl)pyrazin-2-yl)-4-methylphenyl)-3,3,3-trifluoro-2-hydroxypropanamide], the pIC50 in experiment [1] (Table A2) and in experiment [2] (Table A2) was more than 7.00 in each case.

For the molecule `Cc1ccc(C(O)(C(N)=O)C(F)(F)F)cc1-c1cnc(N)c(-c2ccnn2C)n1` (stereo not shown) [Example 69, 2-(3-(5-Amino-6-(1-methyl-1H-pyrazol-5-yl)pyrazin-2-yl)-4-methylphenyl)-3,3,3-trifluoro-2-hydroxypropanamide trifluoroacetate], the pIC50 in experiment [1] (Table A3) and in experiment [2] (Table A3) was more than 7.00 each time.
